Like-named read-outs stand apart in the source and are kept apart here.
How the values were obtained:
TNFα = experiment: IRAK4 Monocyte TNFα Cell Based Assay; set-up: species or system human
Summary of the method: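 TNFα release quantified by HTRF (cryptate/XL665 antibody pair, overnight at RT) after 1 h compound pre-incubation (0.1% DMSO) and 4 h LPS challenge at 50 pg/ml, 37 °C, 5,000 monocytes per well. Signal ratio normalised between unstimulated (0%) and stimulated (100%) controls.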

IRAK4 enzyme = IRAK4 enzyme (Homo sapiens (Human), UniProt Q9NWZ3); experiment: IRAK4 Biochemical Assay (TR-FRET, STK1 KinEASE)
Protocol: IRAK4 enzyme (Carna Biosciences, Chuo-ku, Kobe, Japan) activity was measured by detecting phosphorylated peptide substrate formation using an antibody against the phosphorylated peptide substrate. This is a time-resolved fluorescence resonance energy transfer (TR-FRET) immunoassay, based on the STK1 KinEASE Assay (Cisbio, Bedford, Mass.). The assay was designed as a simple two-step, endpoint assay (a 5 μl enzyme reaction followed by 5 μl stop and detect Solution) performed in ProxiPlate-384 Plus plates (Perkin Elmer, Waltham, Mass.). […] Compounds diluted in DMSO were spotted into 384 well plates using a Labcyte® Echo 550 Liquid Handling System prior to addition of IRAK4 enzyme and peptide substrate. Reaction solutions were delivered using a Multi-Flo (Bio-Tek Instruments). The enzyme and peptide solution was incubated with compound for 15 minutes at room temp before the reaction was initiated by the addition of ATP. The standard 5 μl reaction mixture contained 500 μM ATP, […] peptide (STK1 Peptide), 0.75 nM of IRAK4 in reaction buffer (50 mM HEPES, pH 7.0, 0.02% NaN3, 0.01% BSA, 0.1 mM Orthovanadate, 5 mM […], 0.025% NP-40, 1 mM DTT). After 120 min of incubation at room temperature, 5 μl of Stop and Detect Solution (1:100 Cryptate labeled anti-phosphorylated peptide antibody solution and 125 nM Tracer in a 50 mM HEPES pH 7.0 detection buffer containing sufficient EDTA) was added. The plate was then further incubated for 60 minutes at room temperature and read on Envision 2103 Multilabeled reader (PerkinElmer) with excitation/emission/FRET emission at 340 nm/615 nm665 nm, respectively. Fluorescence intensities at 615 nm and 665 nm emission wavelengths were expressed as aratio (665 nm/615 nm). Percentage of inhibition was calculated as below: % Inhibition=100×(Ratiosample−Ratio0% Inhibition)/(Ratio100% Inhibition−Ratio0% Inhibition)
The 0% inhibition value comes from control wells lacking inhibitor.

[1] = human monocytes, second part of Table 2, compounds 33-343, unit inferred, read-out: EC50 MONO TNF HTRF
[2] = second part of Table 2, compounds 33-343, unit inferred, read-out: IC50 IRAK4-HTBS
[3] = Homo sapiens, Monocyte, human monocytes, LPS stimulated, compounds 1-32, read-out: EC50 TNF
[4] = compounds 1-32, read-out: IC50 HTRF
[5] = Homo sapiens, Monocyte, read-out: EC50 MONO TNF HTRF
[6] = Homo sapiens, Monocyte, human monocytes, second part of Table 2, compounds 33-343, unit inferred, read-out: EC50 MONO TNF HTRF

IRAK4 enzyme, sequence (Q9NWZ3 whole entry): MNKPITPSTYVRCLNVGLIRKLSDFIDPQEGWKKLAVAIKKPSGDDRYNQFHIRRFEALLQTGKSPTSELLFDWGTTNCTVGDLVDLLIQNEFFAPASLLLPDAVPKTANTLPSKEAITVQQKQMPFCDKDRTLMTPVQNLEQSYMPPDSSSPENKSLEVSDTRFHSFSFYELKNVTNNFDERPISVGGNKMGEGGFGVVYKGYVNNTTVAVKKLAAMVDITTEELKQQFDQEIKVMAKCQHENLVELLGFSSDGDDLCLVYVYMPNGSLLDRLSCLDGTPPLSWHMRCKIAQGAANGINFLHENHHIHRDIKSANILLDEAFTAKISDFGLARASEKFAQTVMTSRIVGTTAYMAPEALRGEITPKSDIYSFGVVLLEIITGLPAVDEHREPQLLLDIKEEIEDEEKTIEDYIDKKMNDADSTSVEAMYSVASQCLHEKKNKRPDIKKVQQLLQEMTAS

Row | Compound | IC50 (IRAK4 enzyme) [nM] | EC50 (TNFα; [6]) [nM] | other results
1 | CC(=O)N[C@@H]1CCN(c2nnc(-c3cnc(-c4ccc5cc(C#N)cnn45)cc3NC3(C)COC3)s2)CC1(F)F (single isomer, unassigned; isomer 1) [147 Isomer 1] |  |  | EC50 (TNFα; [1]): 8.2 nM; IC50 (IRAK4 enzyme; [2]): 0.63 nM
2 | CC(=O)N[C@H]1CC[C@H](c2nnc(-c3cnc(-c4ccc5cc(C#N)cnn45)cc3NC3(C)COC3)s2)CC1 [Example 3, N-((1r,4r)-4-(5-(6-(3-cyanopyrrolo[1,2-b]pyridazin-7-yl)-4-((3-methyloxetan-3-yl)amino)pyridin-3-yl)-1,3,4-thiadiazol-2-yl)cyclohexyl)acetamide] |  |  | EC50 (TNFα; [3]): 15 nM; IC50 (IRAK4 enzyme; [4]): < 1 nM
3 | CC(=O)N[C@@H]1CCN(C(=O)c2nnc(-c3cnc(-c4ccc5cc(C#N)cnn45)cc3NC(C)C)s2)C1 [Example 13, (R)-N-(1-(5-(6-(3-cyanopyrrolo[1,2-b]pyridazin-7-yl)-4-(isopropylamino)pyridin-3-yl)-1,3,4-thiadiazole-2-carbonyl)pyrrolidin-3-yl)acetamide] |  |  | EC50 (TNFα; [3]): 23 nM; IC50 (IRAK4 enzyme; [4]): < 1 nM
4 | CC(C)Nc1cc(-c2ccc3cc(C#N)cnn23)ncc1-c1nnc(N2C3CC2CN(C(=O)N2CCN(C)CC2)C3)s1 [Compound 277, 7-(4-(isopropylamino)-5-(5-(3-(4-methylpiperazine-1-carbonyl)-3,6-diazabicyclo[3.1.1]heptan-6-yl)-1,3,4-thiadiazol-2-yl)pyridin-2-yl)pyrrolo[1,2-b]pyridazine-3-carbonitrile] | 0.93 |  | EC50 (TNFα; [5]): 11.3 nM
5 | CC(C)Nc1cc(-c2ccc3cc(C#N)cnn23)ncc1-c1nnc(N2CC3CCCC(C3)C2)s1 [Example 295, 7-(5-(5-(3-azabicyclo[3.3.1]nonan-3-yl)-1,3,4-thiadiazol-2-yl)-4-(isopropylamino)pyridin-2-yl)pyrrolo[1,2-b]pyridazine-3-carbonitrile] | 57.7 | 1000 | 
6 | CC(C)Nc1cc(-c2ccc3cc(C#N)cnn23)ncc1-c1nnc(N2CC3CC(C2)O3)s1 [Compound 233, 7-(5-(5-(6-oxa-3-azabicyclo[3.1.1]heptan-3-yl)-1,3,4-thiadiazol-2-yl)-4-(isopropylamino)pyridin-2-yl)pyrrolo[1,2-b]pyridazine-3-carbonitrile] | 0.35 |  | EC50 (TNFα; [5]): 6.4 nM
7 | CC(C)Nc1cc(-c2ccc3cc(C#N)cnn23)ncc1-c1nnc(C(=O)N2CC[C@H](CO)C2)s1 [Example 221, (S)-7-(5-(5-(3-(hydroxymethyl)pyrrolidine-1-carbonyl)-1,3,4-thiadiazol-2-yl)-4-(isopropylamino)pyridin-2-yl)pyrrolo[1,2-b]pyridazine-3-carbonitrile] | 0.92 | 2320 | 
8 | CC(C)Nc1cc(-c2ccc3cc(C#N)cnn23)ncc1-c1nnc(N2CC3(CCO3)C2)s1 [Example 293, 7-(5-(5-(1-oxa-6-azaspiro[3.3]heptan-6-yl)-1,3,4-thiadiazol-2-yl)-4-(isopropylamino)pyridin-2-yl)pyrrolo[1,2-b]pyridazine-3-carbonitrile] | 1.52 | 365 | 
9 | CC(C)Nc1cc(-c2ccc3cc(C#N)cnn23)ncc1-c1nnc(N2CCN3CCOC[C@@H]3C2)s1 [Example 35, (S)-7-(5-(5-(hexahydropyrazino[2,1-c][1,4]oxazin-8(1H)-yl)-1,3,4-thiadiazol-2-yl)-4-(isopropylamino)pyridin-2-yl)pyrrolo[1,2-b]pyridazine-3-carbonitrile] | 0.87 | 78.2 | 
10 | CC(=O)NC[C@@H]1CCCN1C(=O)c1nnc(-c2cnc(-c3ccc4cc(C#N)cnn34)cc2NC(C)C)s1 [Example 41, (S)-N-((1-(5-(6-(3-cyanopyrrolo[1,2-b]pyridazin-7-yl)-4-(isopropylamino)pyridin-3-yl)-1,3,4-thiadiazole-2-carbonyl)pyrrolidin-2-yl)methyl)acetamide] | 1.38 | 11.6 | 
11 | CC(C)Nc1cc(-c2ccc3cc(C#N)cnn23)ncc1-c1nnc(C(=O)N2CC[C@H](O)C2)s1 [Example 16, (S)-7-(5-(5-(3-hydroxypyrrolidine-1-carbonyl)-1,3,4-thiadiazol-2-yl)-4-(isopropylamino)pyridin-2-yl)pyrrolo[1,2-b]pyridazine-3-carbonitrile] |  |  | EC50 (TNFα; [3]): 35 nM; IC50 (IRAK4 enzyme; [4]): < 1 nM
12 | CNC(=O)c1nnc(-c2cnc(-c3ccc4cc(C#N)cnn34)cc2NC(C)C)s1 [Example 15, 5-(6-(3-cyanopyrrolo[1,2-b]pyridazin-7-yl)-4-(isopropylamino)pyridin-3-yl)-N-methyl-1,3,4-thiadiazole-2-carboxamide] |  |  | EC50 (TNFα; [3]): 3390 nM; IC50 (IRAK4 enzyme; [4]): < 1 nM
13 | CC(=O)NC12CCC(c3nnc(-c4cnc(-c5ccc6cc(C#N)cnn56)cc4NC4CCOCC4)s3)(CC1)CC2 [Example 71, N-(4-(5-(6-(3-cyanopyrrolo[1,2-b]pyridazin-7-yl)-4-((tetrahydro-2H-pyran-4-yl)amino)pyridin-3-yl)-1,3,4-thiadiazol-2-yl)bicyclo[2.2.2]octan-1-yl)acetamide] | 0.58 | 3.2 | 
14 | CC(=O)NC12CCC(c3nnc(-c4cnc(-c5ccc6cc(C#N)cnn56)cc4NC(C)C)s3)(C1)C2 [Example 288, N-(4-(5-(6-(3-cyanopyrrolo[1,2-b]pyridazin-7-yl)-4-(isopropylamino)pyridin-3-yl)-1,3,4-thiadiazol-2-yl)bicyclo[2.1.1]hexan-1-yl)acetamide] | 0.72 | 19.8 | 
15 | CC(C)Nc1cc(-c2ccc3cc(C#N)cnn23)ncc1-c1nnc(N2CCC(C#N)CC2)s1 [Example 310, 7-(5-(5-(4-cyanopiperidin-1-yl)-1,3,4-thiadiazol-2-yl)-4-(isopropylamino)pyridin-2-yl)pyrrolo[1,2-b]pyridazine-3-carbonitrile] | 0.66 | 25.9 | 
16 | CNC(=O)[C@@H]1CCCN1c1nnc(-c2cnc(-c3ccc4cc(C#N)cnn34)cc2NC2COC2)s1 [Compound 332] |  |  | EC50 (TNFα; [1]): 435 nM; IC50 (IRAK4 enzyme; [2]): 1.61 nM
17 | CC(=O)N1C2CCC1CN(c1nnc(-c3cnc(-c4ccc5cc(C#N)cnn45)cc3NC(C)C)s1)C2 [Compound 259, 7-(5-(5-(8-acetyl-3,8-diazabicyclo[3.2.1]octan-3-yl)-1,3,4-thiadiazol-2-yl)-4-(isopropylamino)pyridin-2-yl)pyrrolo[1,2-b]pyridazine-3-carbonitrile] | 0.94 |  | EC50 (TNFα; [5]): 2.6 nM
18 | CC(C)Nc1cc(-c2ccc3cc(C#N)cnn23)ncc1-c1nnc(N2C[C@H]3CC[C@@H](C2)[C@@H]3NC(=O)N2CCN(C)CC2)s1 [Example 96, N-((1R,5S,8s)-3-(5-(6-(3-cyanopyrrolo[1,2-b]pyridazin-7-yl)-4-(isopropylamino)pyridin-3-yl)-1,3,4-thiadiazol-2-yl)-3-azabicyclo[3.2.1]octan-8-yl)-4-methylpiperazine-1-carboxamide] | 0.58 |  | 
19 | CC(C)Nc1cc(-c2ccc3cc(C#N)cnn23)ncc1-c1nnc([C@H]2C[C@H](NC3COC3)C2)s1 [Example 283, 7-(4-(isopropylamino)-5-(5-((1r,3r)-3-(oxetan-3-ylamino)cyclobutyl)-1,3,4-thiadiazol-2-yl)pyridin-2-yl)pyrrolo[1,2-b]pyridazine-3-carbonitrile] | 0.66 |  | 
20 | CC(=O)NC12CCC(c3nnc(-c4cnc(-c5ccc6cc(C#N)cnn56)cc4N[C@H](C)C#N)s3)(CC1)CC2 [Example 72, (R)—N-(4-(5-(4-((1-cyanoethyl)amino)-6-(3-cyanopyrrolo[1,2-b]pyridazin-7-yl)pyridin-3-yl)-1,3,4-thiadiazol-2-yl)bicyclo[2.2.2]octan-1-yl)acetamide] | 0.54 |  | 
21 | CC(C)Nc1cc(-c2ccc3cc(C#N)cnn23)ncc1-c1nnc(C(=O)N2CCC[C@@H]2CN)s1 [Compound 230, (R)-7-(5-(5-(2-(aminomethyl)pyrrolidine-1-carbonyl)-1,3,4-thiadiazol-2-yl)-4-(isopropylamino)pyridin-2-yl)pyrrolo[1,2-b]pyridazine-3-carbonitrile] | 0.74 |  | 
22 | CC(=O)NC12CCC(c3nnc(-c4cnc(-c5ccc6cc(C#N)cnn56)cc4NC4COC4)s3)(CC1)OC2 [Example 198, N-(1-(5-(6-(3-cyanopyrrolo[1,2-b]pyridazin-7-yl)-4-(oxetan-3-ylamino)pyridin-3-yl)-1,3,4-thiadiazol-2-yl)-2-oxabicyclo[2.2.2]octan-4-yl)acetamide] | 0.79 |  | 

Source: US11046686B2, “Thiadiazole IRAK4 compounds” (Gilead Sciences, Inc., priority 2018, dated 2021)
